Source: patent publication US20030180292A1, “Treatment of B cell malignancies using anti-CD40L antibodies in combination with anti-CD20 antibodies and/or chemotherapeutics and radiotherapy” (IDEC PHARMACEUTICALS, priority 2002, published 2003)

Key:
DHL-4 cells = test: Adriamycin (ADM) cytotoxicity of DHL-4 cells with sCD40L and IDEC-131, Alamar Blue assay; assay type: cell-based; details: 5 days
Protocol: Initially, the minimum concentration of ADM cytotoxic to DHL-4 cells was determined by exposing DHL-4 cells for 4 hours to different concentrations of ADM. The cell cytotoxicity of DHL-4 cells after 5 days in culture was measured by Alamar Blue, a dye-reduction assay by live cells (see Gazzano-Santoro et al., J. Immunol. Meth. 202: 163-171 (1997)). Briefly, 1×10^5 DHL-4 cells in growth medium (RMPI-1640 plus 10% Fetal Calf Serum) were incubated with varying concentrations of ADM (1×10^−6 M to 1×10^−8 M) in cell culture tubes at 37° C. for 4 hours. […] Following incubation, plates were cooled by incubating at room temperature for 10 minutes on a shaker, and the intracellular reduction of the dye was determined. Fluorescence was read using a 96-well fluorometer with excitation at 530 nm and emission at 590 nm. The results are expressed as relative fluorescence units (RFU). The percentage of cytotoxicity was calculated as follows: […]
DHL-4 cells (0.5×10^6 cells/ml) were incubated in the presence of 10 μg/ml of soluble CD40L (sCD40L, P. A. Brams, E. A. Padlan, K. Hariharan, K. Slater, J. Leonard, R. Noelle, and R. Newman, “A humanized anti-human CD154 monoclonal antibody blocks CD154-CD40 mediated human B cell activation,” (manuscript submitted)) for 1 hour at 37° C. […] After 5 days, the cytotoxicity was measured by Alamar Blue dye-uptake assay, as described.

[1] = test system: HLA-DR expression on CD19+ CLL cells; test: HLA-DR expression on CD19+ CLL cells by flow cytometry; assay type: cell-based, human; details: for HLA-DR+ % Positive / HLA-DR+ MFI: CD19+ B-cells, 5 μg/ml CD40L
Protocol: To determine whether the CD40L-CD40 signal transduction pathway is intact, CLL cells from CLL patients were cultured (5×10^5 cells/ml) with and without 5 μg/ml of CD40L at 37° C. At 48 hours and 144 hours, the class II molecule, HLA-DR expression, was determined on […] cells by flow cytometry using standard procedures. Briefly, cultured lymphocytes were harvested at different time points and analyzed for surface expression of molecules using antibodies coupled to either fluorescein (FITC) or phycoerythrin (PE) for single or double staining using a FACScan (Becton-Dickinson) flow cytometer. To stain for flow cytometry, 1×10^6 cells in culture tubes were incubated with appropriate antibodies as follows: anti-CD45-FITC to gate lymphocyte population on a scatter plot; anti-CD19-PE (Pharmingen. Cat. #30655) or anti-CD20-FITC (Pharmingen; Cat. #33264) antibodies to determine the CD19^+ and/or […] B-cells; anti-CD3-FITC antibodies (Pharmingen; Cat. #30104) to gate-off the T cells; anti-CD19-RPE and anti-HLA-DR-FITC antibodies (Pharmingen; Cat. #32384) to determine the Pclass II expression on CD19^+ cells. Cells were washed once by centrifugation (at 200×g, for 6 min.) with 2 ml cold PBS and incubated with antibody for 30 min. on ice, after which the cells washed once, fixed in 0.5% paraformaldehyde and stored at 4° C. until analyzed. Flow cytometry data was acquired on FACsan and analyzed using WinList software (Verity Software House). The machine was set to autogating to allow examination of quadrants containing cells that were single stained with either RPE or FITC, unstained or doubly stained.

B-CLL cells [2] = test: Growth and survival of B-CLL cells after 7 days in culture, Alamar Blue assay; assay type: cell-based, human; details: cultures with sCD40L
B-CLL cells [3] = test: Survival of B-CLL cells in culture, Trypan blue dye exclusion; assay type: cell-based, human; details: for % Viability (+) CD40L: sCD40L 5 μg/ml
Protocol: Peripheral blood mononuclear cells (PBMC) were isolated from a CLL patient's blood using a Ficoll-Hypaque gradient centrifulation. Viability was determined by Tryan blue dye exclusion and was >98%. […] CLL cells (PBMC) were cultured in CLL growth medium (e.g. RPMI-1640 medium supplemented with 5% FCS or 2% of autologous donor plasma, supplemented with 2 mM L-Glutamine and 100 U/ml Penicillin-Streptomycin). In addition. for some experiments, CD19^+ B-cells were purified using CD19^+ Dynabeads™ as per manufacture's instructions (Dynal, Cat. #111.03/111.04) and cultured as above. CLL or purified B-CLL cells cultured in growth medium mostly under went spontaneous apoptotic cell death. […] Table II indicates the cell viability of CD19^+ B-CLL cells grown in the presence or absence of sCD40L (5 μg/ml) at different time points and indicates the longer survival of CLL cells. B-CLL cells from Patient #1 cultured with sCD40L had ≧60% viability for greater than 2 weeks, whereas cells grown in the absence of sCD40L had less than 10% viability.

Compound	cytotoxicity to DHL-4 cells (in words) (DHL-4 cells; exposed to ADM in the absence of sCD40L)	HLA-DR+ % Positive ([1]; 48 hrs) [%]	HLA-DR+ MFI ([1]; 48 hrs)	HLA-DR+ % Positive ([1]; 144 hrs) [%]	HLA-DR+ MFI ([1]; 144 hrs)	HLA-DR expression on B-CLL cells (in words) ([1]; cultured in the presence of sCD40L vs not)	cell survival of B-CLL cells (in words) (B-CLL cells [2])	% Viability (+) CD40L (B-CLL cells [3]; B-CLL Patient #1, 0 Hours)	% Viability (+) CD40L (B-CLL cells [3]; B-CLL Patient #1, 48 Hours) [%]	% Viability (+) CD40L (B-CLL cells [3]; B-CLL Patient #1, 96 Hours) [%]	% Viability (+) CD40L (B-CLL cells [3]; B-CLL Patient #1, 144 Hours) [%]	% Viability (+) CD40L (B-CLL cells [3]; B-CLL Patient #2, 0 Hours)	% Viability (+) CD40L (B-CLL cells [3]; B-CLL Patient #2, 72 Hours) [%]	% Viability (+) CD40L (B-CLL cells [3]; B-CLL Patient #2, 96 Hours) [%]	% Viability (+) CD40L (B-CLL cells [3]; B-CLL Patient #2, 144 Hours) [%]	viability of B-CLL cells cultured with sCD40L (B-CLL cells [3]; Patient #1, for greater than 2 weeks) [%]	viability of CLL or purified B-CLL cells in culture (in words) (B-CLL cells [3]; cultured in the presence of sCD40L)	survival of DHL-4 cells after ADM treatment (in words) (DHL-4 cells; sCD40L 10 μg/ml, ADM 2×10^−7 M-4×10^−8 M for 4 hours)
COc1cccc2c1C(=O)c1c(O)c3c(c(O)c1C2=O)C[C@@](O)(C(=O)CO)C[C@@H]3O[C@H]1C[C@H](N)[C@H](O)[C@H](C)O1 [ADM, adriamycin]	increased cytotoxicity																	
sCD40L: soluble CD40L		88	101	95	2943	higher level of HLA-DR expression	cell survival	≧90%	90	77	72	≧90%	72	65	51	≥ 60	extended their viability	prolonged survival
